Three molecules from patent EP0181128A2, “N6-bicycloadenosines” (WARNER-LAMBERT COMPANY, priority 1984, dated 1986) can be followed below.

One experiment addresses T1, adenosine A1 receptor (Rattus norvegicus, UniProt P25099).
T1 sequence (P25099 1-326): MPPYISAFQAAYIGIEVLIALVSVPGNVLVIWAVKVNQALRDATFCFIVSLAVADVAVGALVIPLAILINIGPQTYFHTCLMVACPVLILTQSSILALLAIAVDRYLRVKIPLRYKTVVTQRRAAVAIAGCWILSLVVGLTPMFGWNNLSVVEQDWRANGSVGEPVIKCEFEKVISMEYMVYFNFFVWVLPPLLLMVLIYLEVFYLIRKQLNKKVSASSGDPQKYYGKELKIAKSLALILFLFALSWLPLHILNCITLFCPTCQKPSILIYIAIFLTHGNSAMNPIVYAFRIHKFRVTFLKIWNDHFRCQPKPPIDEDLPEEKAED
The experiment in a line: Adenosine Receptor Binding - A1 Receptor Affinity (RBA1), [3H]-CHA displacement in brain membranes. Further details: species or system rats. The note with it: 1.0 nM [3H]-CHA, rat whole brain membranes, one hour at 25°C; read-out: RBA-1. The procedure:
Adenosine Receptor Binding - A1 Receptor Affinity (RBA1)
The supernatant was discarded, and the pellet was resuspended and centrifuged as before.
Incubation volume was 2 ml. Unbound [^3H]-CHA was separated by rapid filtration under reduced pressure through Whatman glass fiber (GF/B) filters.
Nonspecific binding was defined as the binding which occurred in the presence of 1 mM theophylline. […] Since the amount of radioligand bound was a small fraction of the total amount added, free radioligand was defined as the concentration (nM) of radioligand added to the incubation mixture.

A further experiment relates to male Swiss-Webster mice. Briefly: Antiwrithing (AW) test (analgesic test), acetic acid-induced writhing. The experiment is classed as in vivo. The note with it: Mus musculus, sc; subcutaneous, 20 minutes before acetic acid (0.6%, 10 ml/kg) i.p.; dose suppressing writhing by 50%. The method, then: The antiwrithing (AW) test provides preliminary assessment of compounds with potential analgesic activity. The test is performed in male Swiss-Webster mice. Compounds are administered subcutaneously in aqueous 0.2% methylcellulose or other appropriate vehicles in volumes of 10 ml/kg. Dosages represent active moiety.
Acetic acid (0.6%, 10 ml/kg) is injected intraperitoneally 20 minutes after administration of the adenosine agonist. Writhing movements are counted for five minutes starting seven minutes after the acetic acid injection. Writhing is defined as abdominal constriction and stretching of the body and hind legs with concave arching of the back. Data are.expressed as ED50 values, where the ED50 is the dose necessary to suppress writhing by 50% relative to vehicle controls. ED50 values are calculated by nonlinear regression analysis.
A general note: An intraperitoneal irritant provokes the stretching counted in writhing tests.

The subject of another experiment is Carrageenan pleurisy. The experiment in a line: Carrageenan pleurisy assay (immunoinflammatory test). The experiment is classed as in vivo, rats. The following applies: Rattus norvegicus; for ED50: 4 h, four hours after carrageenan, compound given one hour prior to carrageenan. The procedure:
Assessment of immunoinflammatory or antiinflammatory activity is provided by the carrageenan pleurisy assay. Carrageenan pleurisy is induced as previously described by Carter, G. W., et al., in J. Pharm. Pharmacol 34:66-67, 1982. Carrageenan (310 ug/rat) is injected intrapleurally in a 0.25 ml volume of pyrogen-free saline. Four hours later, the rats are sacrificed and 2 ml of a phenol red solution (325 mg phenol red in 1 liter of 0.05 M phosphate buffered saline) are added to each pleural cavity. The contents of the cavities are mixed and transferred to glass test tubes. A 50 ul aliquot is removed from each tube and exudate cells are counted after red blood cells lysis (with Zapoglobin; Coulter Electronics, Hialeah FL) using a Coulter model ZBI counter. The remaining exudate-phenol red mixture is centrifuged at 750 xg for 15 minutes. One hundred µl of the supernatent fluid is diluted with 3.9 ml of phosphate buffer (0.072 M of tribasic sodium phosphate, Na3PO4·12H2O, in water) and the absorbance is measured at 560 nm.
Exudate volume is calculated as follows: [formula] where V1 = unknown volume of exudate, V2 K volume of dye added to cavity (2 ml), A1 = absorbance of exudate (assumed to be zero), A2 = absorbance of the phenol red solution, A3 = absorbance of exudate and phenol red solution.
Inhibition of exudate or formation is calculated by the following equations: [formula] [formula] ID50 values are calculated by Probit analysis.
The compound of Example 1 was administered one hour prior to carrageenan injection.

Another experiment deals with adenosine A2 receptor (Rattus norvegicus, UniProt P30543). Briefly: Adenosine Receptor Binding - A2 Receptor Affinity (RBA2), [3H]NECA displacement in striatal membranes. The note with it: 4 nM [3H]NECA, 50 nM N6-cyclopentyladenosine, 60 minutes at 25°C, read-out: RBA-2. Further details: species or system rats. The procedure:
Adenosine Receptor Binding - A2 Receptor Affinity (RBA2)
Brains from 200-500 g mixed sex Sprague-Dawley rats were purchased from Pel-Freez (Rogers, Arkansas). […] Brains were thawed and then kept on ice while the striata were dissected out. […] When needed, tissue was thawed at room temperature, disrupted in a Polytron, and kept on ice until used.
Test compounds were dissolved at 10 mM in dimethylsulfoxide on the same day as the experiment, and diluted in dimethylsulfoxide to 100x the final incubation concentration. […] [^3H]NECA was diluted to 40 nM in Tris. […] After all additions, the rack of tubes was vortexed, and the tubes were then incubated for 60 min at 25°C in a shaking water bath. The rack of tubes was vortexed an additional time halfway through the incubation.
Incubations were terminated by filtration through 2.4 cm GF/B filters under reduced pressure. Each tube was filtered as follows: the contents of the tube were poured onto the filter, 4 ml of ice-cold Tris were added to the tube and the contents poured onto the filter, and the filter was washed twice with 4 ml of ice-cold Tris. The filtration was complete in about twelve seconds. Filters were put in scintillation vials, 8 ml of Formula 947 scintillation fluid added, and the vials left overnight, shaken, and counted in a liquid scintillation counter at 40% efficiency.

SMILES strings stand for the structures. Where two headings read alike, the source gives them in different places.

adenosine A2 receptor, sequence (P30543 whole entry): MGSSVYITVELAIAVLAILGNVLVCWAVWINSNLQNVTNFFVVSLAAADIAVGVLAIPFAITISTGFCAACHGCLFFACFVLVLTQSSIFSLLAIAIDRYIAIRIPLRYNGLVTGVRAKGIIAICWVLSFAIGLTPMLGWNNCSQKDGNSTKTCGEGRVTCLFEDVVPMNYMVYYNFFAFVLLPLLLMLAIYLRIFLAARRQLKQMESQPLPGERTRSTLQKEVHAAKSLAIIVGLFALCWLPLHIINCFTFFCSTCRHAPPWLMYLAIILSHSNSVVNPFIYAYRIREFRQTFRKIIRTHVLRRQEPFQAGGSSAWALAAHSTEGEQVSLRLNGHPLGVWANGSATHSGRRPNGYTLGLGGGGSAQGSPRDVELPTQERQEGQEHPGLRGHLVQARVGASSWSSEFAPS

Turning to `OCC1OC(n2cnc3c(NC4CC5CCC4C5)ncnc32)C(O)C1O` (stereo not drawn) [Example 1, N6-endo-Bicyclo[2.2.1]heptyl adenosine], on adenosine A1 receptor, the IC50 was 0.85 nM. For the same molecule, in the experiment with male Swiss-Webster mice, the ED50 was 0.03 mg/kg. Moreover, the ED50 in the experiment with Carrageenan pleurisy (exudate cells (WBC), read-out: ID50 (mg/kg) WBC) amounted to 0.12 mg/kg. For the same molecule, the ED50 in the experiment on Carrageenan pleurisy (exudate volume, read-out: ID50 (mg/kg) Exudate) amounted to 0.15 mg/kg. Besides, in the experiment with Carrageenan pleurisy (read-out: % Inhibition Exudate), the inhibition (as a rule, the change of the read-out against control, counted positive when it falls) at 0.1 mg/kg was determined as 49.3%; the inhibition at 0.2 mg/kg was found to be 60%; the inhibition at 0.4 mg/kg was found to be 81.3%; the inhibition at 0.8 mg/kg came out at 42.7%. In the experiment with Carrageenan pleurisy (read-out: % Inhibition WBC), the inhibition at 0.1 mg/kg came to 74.1%, the inhibition at 0.2 mg/kg is 70%, the inhibition at 0.4 mg/kg was 90% and the inhibition at 0.8 mg/kg amounted to 68.4%.
Regarding `OCC1OC(n2cnc3c(NC4CC5CCC4C5)ncnc32)C(O)C1O` (stereo not drawn) [Example 2, N6-exo-Bicyclo[2.2.1]heptyladenosine], the IC50 at adenosine A1 receptor was 1.4 nM. In addition, in the experiment with Carrageenan pleurisy (read-out: % Inhibition Exudate), the inhibition at 0.3 mg/kg stood at 24.3% and the inhibition at 1 mg/kg was found to be 22.9%. Besides, in the experiment with Carrageenan pleurisy (read-out: % Inhibition WBC), the inhibition at 0.3 mg/kg worked out at 25.7% and the inhibition at 1 mg/kg came to 52.9%.
For `OC1C(CCl)OC(n2cnc3c(NC4CC5CCC4C5)ncnc32)C1O` (stereo not drawn) [Example 5, N6-2-endo-norbornyl-5'-chloro-5'-deoxy-adenosine], the results for the IC50 at adenosine A1 receptor and at adenosine A2 receptor were 0.69 nM and 3090 nM, respectively. The inhibition at 0.1 mg/kg in the experiment with Carrageenan pleurisy (read-out: % Inhibition Exudate) came out at 11.7%; with Carrageenan pleurisy (read-out: % Inhibition WBC), 18.4%. In addition, the inhibition at 0.3 mg/kg with Carrageenan pleurisy (read-out: % Inhibition Exudate) was 16.8%; in the experiment with Carrageenan pleurisy (read-out: % Inhibition WBC) it was 40%.
